One compound from US20090292012A1, “Therapeutic Agent” (priority 2005, published 2009) can be followed below.

As a reminder, the inhibition is the share of the control response that was lost under treatment. Low readings indicate a response near the control, high ones a response far below the control.

In one data set the test system is RAW 264.7 cells. The data set can be described thus: Determination of anti-foaming in macrophage (cholesterol ester accumulation with Ac-LDL). It is filed as cell-based. To be noted: Ac-LDL 20 μg/mL, 24 hours. The method, then:
Macrophage introduces a modified LDL (such as acetyl LDL (Ac-LDL) into a cell to synthesize cholesterol ester, thereby foaming. An anti-foaming activity for the macrophage with each subject sample was determined.
RAW 264.7 cells (ATCC TIB 71) were suspended in Dulbecco's modified Eagle's medium (manufactured by Sigma, D5796) containing 10% fetal bovine serum (manufactured by Cambrex Corporation), so as to have a concentration of 4×10^5 cells/ml, and the suspension was put to each well of a 24-well microtiter plate in an amount of 1 ml per well. The cells were cultured at 37° C. overnight in the presence of 5% carbon dioxide gas. Next, the medium was exchanged with UltraCHO media (manufactured by Cambrex Corporation, B2724) and 2 μL of the dimethyl sulfoxide solution of each of the subject samples prepared in the above-mentioned Preparation Examples was added to each well so as to have a concentration shown in the following Table 1. Here, the purified ethanol extract fraction from a leaf of Peucedanum japonicum -Fr. 2-2 was used for 3′-acetoxy-4′-senecioyloxy-3′,4′-dihydroseselin in Table 1. Further, Ac-LDL (manufactured by Biomedical Technology, Inc., BT-906) at a final concentration of 20 μg/mL was added to each well, and each mixture was cultured for 24 hours. Here, there were set a group without addition of Ac-LDL and a group with addition of dimethyl sulfoxide as controls.
The total amount of cholesterol in a cell and the amount of free cholesterol were determined to calculate the amount of cholesterol ester as an index for anti-foaming for macrophage.
After the termination of the culture, the medium was removed, and the cells were washed with a 0.3% (w/v) BSA (manufactured by Sigma, A-8022) containing phosphate buffered saline and further washed with a phosphate buffered saline. The amount 0.5 mL of a solvent of hexane:isopropanol=3:2 was added to the cells. The mixture was allowed to stand at room temperature for 30 minutes, and thereafter the supernatant was collected. The procedures were repeated again, and a total of 1 mL of the supernatant was concentrated to dryness. The precipitate was dissolved in 30 μL of isopropanol, and thereafter the total amount of cholesterol contained in 10 μL of the resulting solution was determined with Cholesterol E-Test (manufactured by Wako Pure Chemical Industries, Ltd., 439-17501) and the amount of free cholesterol was determined with Free Cholesterol E-Test (manufactured by Wako Pure Chemical Industries, Ltd., 435-35801). All of the determinations were carried out twice. The amount of biosynthesis of cholesterol ester was determined by subtracting the amount of free cholesterol from the total amount of cholesterol. The anti-foaming activity was calculated in accordance with the following formula. […]

For the next data set, the system named is ACAT. The data set is described as follows: Determination of inhibitory activity for ACAT, rat liver microsome, [3H]oleoyl-CoA. The data set is classed as biochemical. As to conditions: relative to 10 μM FR179254 set as 100%. The protocol:
Four of Sprague-Dawley rats were bred for one week and thereafter sacrificed, and the livers were immediately excised. The excised livers were shortly washed with cold brine, and thereafter immersed (25 mL/a rat) into sucrose buffer (0.3 M sucrose, 50 mM Tris-HCl, 1 mM EDTA, 50 mM NaCl, pH 7.4). The resulting livers were homogenized, and the procedures of centrifuging at 10,000×g for 30 minutes and removing the formed precipitates were repeated twice for the homogenized livers. The resulting supernatant was centrifuged at 105,000×g for 70 minutes, and the precipitates were collected and suspended in an appropriate amount of 100 mM phosphate buffer (pH 7.4). The suspension was again suspended in the phosphate buffer so as to have a protein concentration of 10 mg/ml, and EDTA was added thereto so as to have a final concentration of 1 mM. Thereafter, the suspension was subjected to frozen storage at −80° C. until being used.
The enzymatic activity of ACAT was determined according to the partially modified method of Lee et al. (Planta Med., 2004, 70, 678-679).
In a 1.5 mL Eppendorf tube, 1 μL of a dimethyl sulfoxide solution of each subject sample was added to a 92 μL of a reaction aqueous solution (0.05 M potassium phosphate, 1 mM dithiothreitol, 9 mg/mL fatty acid-free bovine serum albumin, 200 μg/mL cholesterol, pH 7.4) containing 1.5 μL of the rat liver microsome prepared in item (1) of Example 2 so as to have a final concentration described in Table 2, and the mixture was incubated at 37° C. for 30 minutes. Here, the purified ethanol extract fraction from a leaf of Peucedanum japonicum -Fr. […] The radioactivity was determined with a liquid scintillation counter LS6500 (manufactured by Beckmann) using 150 μL of the resulting supernatant with Ultima Gold (manufactured by PerkinElmer Life Sciences Inc., 6013329) as a scintillation cocktail. […] The inhibitory activity for ACAT (%) of each of the subject samples was calculated in accordance with the following formula setting an inhibitory ratio upon addition of 10 μM FR179254 which is a positive control as 100%. […]
For orientation: Liver microsomes are vesicles of endoplasmic reticulum, rich in cytochrome P450 enzymes.

Another data set has as its system mouse. The data set is described as follows: Single oral dose toxicity in mouse. It is filed as in vivo. To be noted: 1 g/kg weight. The method, then:
No toxicity is found even when the above-mentioned effective ingredient used in the present invention is administered in an effective dose for the exhibition of its action in a living body.

In the data set on RAW 264.7 cells (Mus musculus, RAW264.7, final concentration 20 μM), `CC(=O)OC1C(OC(=O)C=C(C)C)c2c(ccc3ccc(=O)oc23)OC1(C)C` (centres unmarked) [3′-acetoxy-4′-senecioyloxy-3′,4′-dihydroseselin] returned an inhibition at 20 µM of 19%. The inhibition at 40 µM in the data set on RAW 264.7 cells (Mus musculus, RAW264.7, final concentration 40 μM) was found to be 98%. The results for the “Anti-Foaming Activity (%)” value in the data set on RAW 264.7 cells (final concentration 0.1 %) and in the data set on RAW 264.7 cells (final concentration 0.2 %) were 34% and 72%, respectively. Further, the “Inhibitory Activity for ACAT (%)” value is recorded as 40% in the data set with ACAT (final concentration 25 μM), 65% in the data set on ACAT (final concentration 50 μM) and 87% in the data set with ACAT (final concentration 100 μM). The “deaths after oral administration” value in the data set with mouse is listed as “no cases of deaths are found”.
